Paper PMC6009948, “Design and synthesis of benzopyran-based inhibitors of the hypoxia-inducible factor-1 pathway with improved water solubility” (Journal of Enzyme Inhibition and Medicinal Chemistry, 2017)
Values after ≈ are worked out from the molar mass of the structure shown. Where two headings read alike, the source gives them in different places. One block for each compound: values may come before it.

What was measured:
[1] = system: hypoxia-induced HIF transcriptional activity; assay: HRE-luciferase reporter assay in LN229-HRE-luciferase glioma cells; type: cell-based; conditions: read-out: IC50, HRE-luciferase reporter inhibitory activity
Method: These analogs were first evaluated for their ability to inhibit hypoxia-induced HIF transcriptional activity in LN229-HRE-luciferase glioma cells as described previously. Their inhibitory activities are presented as IC50 in Table 1.
All the analogs were assessed for their ability to inhibit the HIF-1 pathway using a luciferase reporter assay described previously. This assay reports the ability for a compound to inhibit HIF transcriptional activity. […] The same is true if the morpholino unit is directly attached to the sulfonyl group (6). In the two series of compounds (3, 4) with a substituted phenyl group replacing the benzopyran ring in 1, only introduction of the morpholino moiety at the para positions (3) allowed for the preservation of HIF inhibition activity.

[2] = Solubility by dynamic light scattering (particle aggregation); type: physicochemical; conditions: DLS; for Concentration of particle appearance in PBS: PBS with 1% DMSO, rested 1 h; for Concentration of particle appearance in water: de-ionised water with 1% DMSO, room temperature, rested 24 h
Method: To further investigate the true enhancement of solubility, particle aggregation was examined using dynamic light scattering (DLS). Selected compounds were treated according to the following procedure: • All centrifuge tubes and cuvettes were rinsed with either DCM or water and then vacuum dried before use to remove dust and any particulates. • Stock solutions (10 mM) of each compound of interest were prepared in filtered DMSO. • Six dilutions (0, 10, 20, 30, 50, and 100 µM) were prepared in filtered de-ionised water with 1% DMSO and allowed to rest at room temperature for 24 h after vortex. • DLS analysis was performed for each concentration on the Brookhaven Instrument Corporation, NanoBrook 90Plus Particle Size Analyzer, Version 5.20 (Holtsville, NY). • Additional experiments were performed at specific concentrations for each compound as follows: 0, 1, 3, 10, and 20 µM concentrations of 1; 0, 10, 12, and 20 µM of 2; 0, 5, 7, and 10 µM of 3a; and 0, 10, 20, 30, and 50 µM concentrations of 4a. • Additional experiments were repeated in filtered PBS* with 1% DMSO as follows: 0, 0.5, 1, 2, 3, and 5 µM concentrations of 1; 0, 5, 7, 10, 12, and 15 µM of 2; 0, 10, 12, 15, and 20 µM of 3a; and 0, 10, 20, 30, and 50 µM concentrations of 4a.
*Experiments in PBS were carried out the same way as the experiments in water except DMSO stock solutions were made at 5 mM and the PBS diluted samples rested for 1 h before particle analysis.
To investigate the true enhancement of aqueous solubility, particle aggregation was examined using DLS. DLS can detect particle sizes in solution by measuring changes in scattered light in relation to the Brownian motion of particles. It is commonly used to detect the particle sizes of various chemical and biological molecules, including small molecule inhibitors. Though there are several methods for detecting solubility, we chose the DLS method due to its ease, reproducibility, minimal sample requirement, and relative sensitivity to small particles.
The active compounds 3a and 4a were compared to their non-morpholine containing counterparts, 1 and 2, respectively (Figure 3). Solutions of varying concentrations of each compound were made in either water or PBS with 1% DMSO. […] DLS measurements, summarised in Table 2, reveal that 3a forms aggregates at approximately 10 µM, an order of magnitude higher than 1, which is insoluble at just 1 µM in water.

[3] = system: hypoxia-induced HIF transcriptional activity; conditions: cited from earlier work
[4] = set-up: method as in earlier work; conditions: cited from earlier work
[5] = system: brain, and pancreatic cancers; set-up: method as in earlier work; conditions: cited from earlier work
[6] = set-up: method as in earlier work; conditions: daily treatments with 60 mg/kg for up to 12 weeks; cited from earlier work
[7] = set-up: method as in earlier work; conditions: cited from earlier work; remark: listed apart in the source

- IC50 [1]: > 5 µM
Compound: 3,4-Dimethoxy-N-(2-(morpholinomethyl)benzyl)-N-phenylbenzenesulfonamide [Compound 3c]

Compound: COc1ccc(S(=O)(=O)N(Cc2ccc3c(c2)C=CC(C)(C)O3)c2ccccc2)cc1OC [Compound 1, N-((2,2-dimethyl-2H-chromen-6-yl)methyl)-3,4-dimethoxy-N-phenylbenzenesulfonamide]
- Concentration of particle appearance in PBS [2]: 1 µM
- Concentration of particle appearance in water [2]: 1 µM
- IC50 ([3]; lead compound 1 (KCN1), read-out: IC50, HIF-dependent bioassay (HRE-luciferase reporter)): ~0.6 µM
- solubility in water [4]: 9 ng/mL (≈ 0.0193 µM)
- in vivo inhibitory activity against brain, and pancreatic cancers [5]: very pronounced inhibitory activity
- tolerability / side effects in mice [6]: minimal side effects
- cytotoxicity [7]: Neither did 1 nor its analogs demonstrate cytotoxicity

- Concentration of particle appearance in PBS [2]: 10 µM
- Concentration of particle appearance in water [2]: 10 µM
Compound: COc1ccc(S(=O)(=O)N(Cc2ccc3c(n2)C=CC(C)(C)O3)C2CCC2)cc1OC [Compound 2, N-cyclobutyl-N-((2,2-dimethyl-2H-pyrano[3,2-b]pyridin-6-yl)methyl)-3,4-dimethoxybenzenesulfonamide]
- IC50 ([3]; lead compound 2 (64b), read-out: IC50, HRE-luciferase reporter inhibitory activity): ~0.3 µM

- IC50 ([1]; Glioma cell): 0.9 µM
- Concentration of particle appearance in PBS [2]: 15 µM
Compound: COc1ccc(S(=O)(=O)N(Cc2ccc(CN3CCOCC3)cc2)c2ccccc2)cc1OC [Compound 3a, 3,4-Dimethoxy-N-(4-(morpholinomethyl)benzyl)-N-phenylbenzenesulfonamide]

- IC50 ([1]; Glioma cell): > 5 µM
Compound: COc1ccc(S(=O)(=O)N(Cc2cccc(CN3CCOCC3)c2)c2ccccc2)cc1OC [Compound 3b, 3,4-Dimethoxy-N-(3-(morpholinomethyl)benzyl)-N-phenylbenzenesulfonamide]

- IC50 ([1]; Glioma cell): 3.8 µM
Compound: COc1ccc(S(=O)(=O)N(Cc2ccc(N3CCOCC3)cc2)c2ccccc2)cc1OC [Compound 3d, 3,4-Dimethoxy-N-(4-morpholinobenzyl)-N-phenylbenzenesulfonamide]

- IC50 ([1]; Glioma cell): 1 µM
- Concentration of particle appearance in water [2]: >100 µM
Compound: COc1ccc(S(=O)(=O)N(Cc2ccc(CN3CCOCC3)cc2)C2CCC2)cc1OC [Compound 4a, N-Cyclobutyl-3,4-dimethoxy-N-(4-(morpholinomethyl)benzyl)benzenesulfonamide]

- IC50 ([1]; Glioma cell): > 5 µM
Compound: COc1ccc(S(=O)(=O)N(Cc2cccc(CN3CCOCC3)c2)C2CCC2)cc1OC [Compound 4b, N-Cyclobutyl-3,4-dimethoxy-N-(3-(morpholinomethyl)benzyl)benzenesulfonamide]

- IC50 ([1]; Glioma cell): ~2.6 µM
Compound: COc1ccc(S(=O)(=O)N(Cc2ccc(N3CCOCC3)cc2)C2CCC2)cc1OC [Compound 4d, N-Cyclobutyl-3,4-dimethoxy-N-(4-morpholinobenzyl)benzenesulfonamide]

- IC50 ([1]; Glioma cell): > 5 µM
Compound: COc1ccc(S(=O)(=O)N(CCN2CCOCC2)Cc2ccc3c(c2)C=CC(C)(C)O3)cc1OC [Compound 5a, N-((2,2-Dimethyl-2H-chromen-6-yl)methyl)-3,4-dimethoxy-N-(2-morpholinoethyl)benzenesulfonamide]

- IC50 ([1]; Glioma cell): > 5 µM
Compound: COc1ccc(S(=O)(=O)N(CCCN2CCOCC2)Cc2ccc3c(c2)C=CC(C)(C)O3)cc1OC [Compound 5b, N-((2,2-Dimethyl-2H-chromen-6-yl)methyl)-3,4-dimethoxy-N-(3-morpholinopropyl)benzenesulfonamide]

- IC50 ([1]; Glioma cell): > 5 µM
Compound: CC1(C)C=Cc2cc(CN(c3ccccc3)S(=O)(=O)N3CCOCC3)ccc2O1 [Compound 6a, N-((2,2-Dimethyl-2H-chromen-6-yl)methyl)-N-phenylmorpholine-4-sulfonamide]

- IC50 ([1]; Glioma cell): > 5 µM
Compound: CC1(C)C=Cc2cc(CN(C3CCC3)S(=O)(=O)N3CCOCC3)ccc2O1 [Compound 6b, N-Cyclobutyl-N-((2,2-dimethyl-2H-chromen-6-yl)methyl)morpholine-4-sulfonamide]

Compound: N-Cyclobutyl-3,4-dimethoxy-N-(2-(morpholinomethyl)benzyl)benzenesulfonamide [Compound 4c]
- IC50 [1]: > 5 µM
